The target of assay [1] is T1, CB1 receptor (Homo sapiens, UniProt P21554).
T1 construct: expressed in transfected cells
The experiment in a line: Binding assay for CB1 agonists or inverse agonists (SK-N-MC membranes, [3H]-CP-55,940). The following applies: for inhibition at 0.2 µM: read-out: CB1 receptor binding percent inhibition, test concentration 0.2 μM (footnote 2). The procedure, abridged:
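Radioligand displacement: [3H]-CP-55,940 at […], 90 min at 30° C, pH 7.5 Tris buffer with 0.5 mg/mL fatty-acid-free BSA, using semi-purified membranes of human-CB1-transfected SK-N-MC cells. Bound counts collected on GF/C filters, 10 uM WIN 55,212 for non-specific; IC50 from percent inhibition over several concentrations.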

The target in assay [2] is T1, CB1 receptor. Briefly: cell-based. The source says:
The CB1 and CB2 receptors are G-protein coupled receptors (GPCR), which influence cell function via the Gi-protein. These receptors modulate the activity of intracellular adenylate cyclase, which in turn produces the intracellular signal messenger cyclic-AMP (cAMP).
At baseline, or during non-ligand bound conditions, these receptors are constitutively active and tonically suppress adenylate cyclase activity. The binding of an agonist causes further receptor activation and produces additional suppression of adenylate cyclase activity. The binding of an inverse agonist inhibits the constitutive activity of the receptors and results in an increase in adenylate cyclase activity.
By monitoring intracellular adenylate cyclase activity, the ability of compounds to act as agonists or inverse agonists can be determined.
Test compounds were evaluated in SK-N-MC cells which, using standard transfection procedures, were stably transfected with human cDNA for pcDNA3-CRE β-gal and pcDNA3 CB1 receptor (human) or pcDNA3 CB2 receptor (human). By expressing CRE β-gal, the cells produced β-galactosidase in response to CRE promoter activation by cAMP. Cells expressing CRE β-gal and either the human CB1 or CB2 receptor will produce less β-galactosidase when treated with a CB1/CB2 agonist and will produce more β-galactosidase when treated with a CB1/CB2 inverse agonist.
The cells were grown in 96-well plates under standard cell culture conditions at 37° C. in a 5% CO2 atmosphere and culture media (wherein the media was supplemented with 2 mM L-glutamine, […] sodium pyruvate, 10% FBS (fetal bovine serum) and antibiotics).
The change in forskolin induced β-galactosidase activity was determined by setting a vehicle treated cell's activity value at 100% and expressing the β-galactosidase activity measured in a corresponding compound treated cell as a percent of the vehicle treated cell activity.
The EC50 value for functional activity for compounds tested was calculated by linear regression and was obtained from studies in which varying compound concentrations were used.
Where an EC50 value was not obtained for a test compound, the value shown (in %) represents change in functional activity and was obtained from a study in which one compound concentration was used.

Assay [3] addresses T2, CB2 receptor (Homo sapiens, UniProt P34972).
T2 construct: expressed in transfected cells
The experiment in a line: Binding assay for CB2 agonists or inverse agonists (SK-N-MC membranes, [3H]-CP-55,940). The following applies: for CB2 receptor binding percent inhibition: test concentration not stated; for inhibition at 0.2 µM: read-out: CB2 receptor binding percent inhibition, test concentration 0.2 μM (footnote 2); for inhibition at 1 µM: test concentration 1 μM (footnote 1). The procedure, abridged:
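IC50 came from percent-inhibition data over several compound concentrations, fitted by linear regression. Binding used semi-purified membranes of human CB2-transfected SK-N-MC cells, 90 min at 30 °C, pH 7.5 Tris-HCl with MgCl2, EDTA and BSA, then filtration and scintillation counting.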

Where [4] appears, read: read-out: CB1 receptor binding percent inhibition.
Setting [5] is: CB1 Receptor Functional Inverse Agonist EC50, forskolin induced β-galactosidase activity, SK-N-MC cells.
[6] abbreviates: Cannabinoid CB1 Receptor Binding IC50, calculated by linear regression from percent inhibition at various test concentrations.
[7] abbreviates: calculated by linear regression from percent inhibition at various test concentrations, read-out: Cannabinoid CB1 Receptor Binding IC50.
The mark [8] stands for this setting: read-out: CB1 receptor binding percent inhibition, test concentration 1 μM (footnote 1).
Where [9] appears, read: forskolin induced β-galactosidase activity, SK-N-MC cells, read-out: CB1 Receptor Functional Inverse Agonist EC50.
Setting [10] is: read-out: CB2 receptor binding percent inhibition.

Structures are written as SMILES. Read-outs that look alike come from different tables or passages of the source.

T1 sequence (P21554 whole entry): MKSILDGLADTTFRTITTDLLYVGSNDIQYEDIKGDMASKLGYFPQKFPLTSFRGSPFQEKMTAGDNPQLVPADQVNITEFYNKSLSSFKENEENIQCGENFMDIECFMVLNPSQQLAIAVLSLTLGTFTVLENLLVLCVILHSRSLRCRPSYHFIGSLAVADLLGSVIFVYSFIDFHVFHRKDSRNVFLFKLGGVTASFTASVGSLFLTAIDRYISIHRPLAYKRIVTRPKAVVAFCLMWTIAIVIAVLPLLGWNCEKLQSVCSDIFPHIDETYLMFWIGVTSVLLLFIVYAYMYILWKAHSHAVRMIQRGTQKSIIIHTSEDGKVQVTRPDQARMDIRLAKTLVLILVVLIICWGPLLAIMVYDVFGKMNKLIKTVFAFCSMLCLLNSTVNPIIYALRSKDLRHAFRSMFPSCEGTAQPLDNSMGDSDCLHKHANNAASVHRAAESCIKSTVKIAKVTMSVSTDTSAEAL
T2 sequence (P34972 whole entry): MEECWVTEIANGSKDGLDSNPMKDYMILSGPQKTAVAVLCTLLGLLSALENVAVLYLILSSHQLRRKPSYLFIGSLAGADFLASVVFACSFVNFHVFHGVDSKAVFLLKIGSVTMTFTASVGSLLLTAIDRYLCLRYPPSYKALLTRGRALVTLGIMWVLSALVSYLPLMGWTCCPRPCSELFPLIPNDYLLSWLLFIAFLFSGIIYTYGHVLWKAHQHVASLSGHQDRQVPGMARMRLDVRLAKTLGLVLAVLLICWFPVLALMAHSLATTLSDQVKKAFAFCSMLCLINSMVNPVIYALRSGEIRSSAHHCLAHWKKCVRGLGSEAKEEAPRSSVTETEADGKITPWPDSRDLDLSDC

What is called EC50 is the concentration needed to bring the measured effect to its halfway point. Consider `O=C(N[C@@H](CO)c1ccccc1)c1nn(C2CCCCC2)c2c1CCCCC2Cc1cccc(F)c1` (stereo partly drawn) [Cpd 55, 1-cyclohexyl-8-(3-fluoro-benzyl)-1,4,5,6,7,8-hexahydro-cycloheptapyrazole-3-carboxylic acid [(1R)-2-hydroxy-1-phenyl-ethyl]-amide], for which, in assay [1] (setting [4]), the inhibition at 1 µM was 50%. This compound registered an EC50 in assay [2] (setting [5]) of 400 nM. Also, in assay [3], the “CB2 receptor binding percent inhibition” value is reported as 18%.
By IC50 is commonly meant the midpoint of a concentration-inhibition curve. With `COc1ccc(/C=C2\CCCCc3c(C(=O)N[C@@H]4CCc5ccccc54)nn(-c4ccc(Cl)cc4Cl)c32)cc1` [Cpd 216, (8E)-1-(2,4-dichloro-phenyl)-8-(4-methoxy-benzylidene)-1,4,5,6,7,8-hexahydro-cycloheptapyrazole-3-carboxylic acid (1R)-indan-1-ylamide], the IC50 in assay [1] (setting [6]) was 9 nM. Further, the inhibition at 0.2 µM in assay [1] was found to be 91%; in assay [3], 33%. Besides, the EC50 in assay [2] (setting [5]) amounted to 50 nM.
As for `CC12CCC(C1)C(C)(C)[C@H]2NC(=O)c1nn(-c2ccc(Cl)cc2Cl)c2c1CCCCC2Cc1cccc(F)c1` (stereo partly drawn) [Cpd 42, 1-(2,4-dichloro-phenyl)-8-(3-fluoro-benzyl)-1,4,5,6,7,8-hexahydro-cycloheptapyrazole-3-carboxylic acid [(2S)-1,3,3-trimethyl-bicyclo[2.2.1]hept-2-yl]-amide], the IC50 in assay [1] (setting [7]) is 300 nM; in assay [3] (calculated by linear regression from percent inhibition at various test concentrations, read-out: Cannabinoid CB2 Receptor Binding IC50) it was 300 nM. Moreover, the inhibition at 1 µM in assay [1] (setting [8]) was 65%; in assay [3] (setting [10]) it was 52%. Also, the EC50 in assay [2] (setting [9]) is 300 nM.
Take `O=S(=O)(/C=C/c1nn(-c2ccc(F)cc2F)c2c1CCCCC2Cc1cccc(F)c1)NN1CCCCC1` (centres unmarked) [Cpd 123, (2E)-2-[1-(2,4-difluoro-phenyl)-8-(3-fluoro-benzyl)-1,4,5,6,7,8-hexahydro-cycloheptapyrazol-3-yl]-ethenesulfonic acid piperidin-1-ylamide]: in assay [1] (setting [4]), the inhibition at 1 µM is 47%. In assay [2] (setting [5]), the half-maximal effective concentration (EC50) was 2900 nM. Also, in assay [3], the “CB2 receptor binding percent inhibition” value is on record as 14%.
For `COC(=O)[C@@H](Cc1ccc(F)cc1)NC(=O)c1nn(-c2ccc(Cl)cc2Cl)c2c1CCCC[C@H]2Cc1cccc(F)c1` [Cpd 78, (2R)-2-{[(8S)-1-(2,4-dichloro-phenyl)-8-(3-fluoro-benzyl)-1,4,5,6,7,8-hexahydro-cycloheptapyrazole-3-carbonyl]-amino}-3-(4-fluoro-phenyl)-propionic acid methyl ester], the IC50 in assay [1] (setting [6]) was 400 nM. Moreover, in assay [1] (value shown is an average percent inhibition (footnote 5), concentration not given), the “CB1 receptor binding average percent inhibition” value was found to be 59%. In assay [2] (setting [5]), this compound yielded an EC50 of 200 nM. In addition, the “CB2 receptor binding percent inhibition” value in assay [3] stood at 23%.
As for `C[C@H](NC(=O)c1nn(-c2ccc(Cl)cc2Cl)c2c1CCCC/C2=C\c1ccc(Cl)cc1)C1CCCCC1` [Cpd 138, (8E)-8-(4-chloro-benzylidene)-1-(2,4-dichloro-phenyl)-1,4,5,6,7,8-hexahydro-cycloheptapyrazole-3-carboxylic acid [(1S)-1-cyclohexyl-ethyl]-amide], the IC50 in assay [1] (setting [6]) was 30 nM. The inhibition at 0.2 µM in assay [1] is 71%; in assay [3] it was 22%. For the same compound, the response in assay [2] (setting [5]) was half-maximal at 100 nM (EC50).
`CC12CCC(C1)C(C)(C)[C@H]2NC(=O)c1nn(C2CCCCC2)c2c1CCCCC2Cc1ccc(F)cc1` (stereo partly drawn) [Cpd 58, 1-cyclohexyl-8-(4-fluoro-benzyl)-1,4,5,6,7,8-hexahydro-cycloheptapyrazole-3-carboxylic acid [(2S)-1,3,3-trimethyl-bicyclo[2.2.1]hept-2-yl]-amide]: the IC50 in assay [1] (setting [7]) was 200 nM. Also, the inhibition at 1 µM worked out at 75% in assay [1] (setting [8]) and 98% in assay [3] (setting [10]). In assay [2] (SK-N-MC cells, forskolin induced β-galactosidase activity, read-out: CB1 Receptor Functional Agonist EC50), the EC50 stood at 1400 nM. Also, the inhibition at 0.015 µM in assay [3] (test concentration 0.015 μM (footnote 7), read-out: CB2 receptor binding percent inhibition) came out at 65%. Also, the “CB2 receptor binding percent inhibition” value in assay [3] was found to be 74%.
Turning to `COc1ccc(/C=C2\CCCCc3c(C(=O)N[C@H](C)c4ccccc4)nn(-c4ccc(Cl)cc4Cl)c32)cc1` [Cpd 212, (8E)-1-(2,4-dichloro-phenyl)-8-(4-methoxy-benzylidene)-1,4,5,6,7,8-hexahydro-cycloheptapyrazole-3-carboxylic acid [(1R)-1-phenyl-ethyl]-amide], in assay [1] (setting [6]), the half-maximal inhibitory concentration (IC50) is 6 nM. Further, the inhibition at 0.2 µM in assay [1] came to 94%; in assay [3], 42%. Besides, in assay [2] (setting [5]), a half-maximal effect (EC50) was put at 20 nM.
On the same counts, the results for `O=C(c1nn(-c2ccc(Cl)cc2Cl)c2c1CCCC/C2=C\c1ccc(F)cc1)N1CCCCC1c1ccccn1` (centres unmarked) [Cpd 206, (8E)-[1-(2,4-dichloro-phenyl)-8-(4-fluoro-benzylidene)-1,4,5,6,7,8-hexahydro-cycloheptapyrazol-3-yl]-(3,4,5,6-tetrahydro-2H-[2,2′]bipyridinyl-1-yl)-methanone] are 80 nM, 73%, 22% and 10 nM.
For `O=C(NCc1ccccn1)c1nn(-c2ccc(Cl)cc2Cl)c2c1CCCC/C2=C\c1ccc(Cl)cc1` [Cpd 155, (8E)-8-(4-chloro-benzylidene)-1-(2,4-dichloro-phenyl)-1,4,5,6,7,8-hexahydro-cycloheptapyrazole-3-carboxylic acid (pyridin-2-ylmethyl)-amide], in assay [1] (setting [6]), the IC50 was 70 nM. Also, the inhibition at 0.2 µM was 72% in assay [1] and 8% in assay [3]. The EC50 in assay [2] (setting [5]) is 30 nM.
`CS(=O)(=O)n1nc(C(=O)NCc2ccccc2)c2c1C(Cc1ccc(F)cc1)CCCC2` (centres unmarked) [Cpd 130, 8-(4-fluoro-benzyl)-1-methanesulfonyl-1,4,5,6,7,8-hexahydro-cycloheptapyrazole-3-carboxylic acid benzylamide]: the IC50 in assay [1] (setting [6]) is 60 nM. Also, the inhibition at 0.25 µM in assay [1] (read-out: CB1 receptor binding percent inhibition, test concentration 0.25 μM (footnote 8)) is 84%; in assay [3] (read-out: CB2 receptor binding percent inhibition, test concentration 0.25 μM (footnote 8)), 98%. The EC50 in assay [2] (CB1 Receptor Functional Agonist EC50, SK-N-MC cells, forskolin induced β-galactosidase activity) was < 30 nM.
With `O=C(N[C@@H]1c2ccccc2C[C@@H]1O)c1nn(-c2ccc(Cl)cc2Cl)c2c1CCCCC2Cc1cccc(Cl)c1` (single isomer, unassigned) [Cpd 112, (8R*)-8-(3-chloro-benzyl)-1-(2,4-dichloro-phenyl)-1,4,5,6,7,8-hexahydro-cycloheptapyrazole-3-carboxylic acid [(1R,2S)-2-hydroxy-indan-1-yl]-amide], in assay [1] (setting [8]), the inhibition at 1 µM came out at 49%. The same compound came in with an EC50 in assay [2] (setting [5]) of 60 nM. In addition, the “CB2 receptor binding percent inhibition” value in assay [3] is 16%.
As to `C[C@H](NC(=O)c1nn(C2CCCCC2)c2c1CCCCC2Cc1cccc(F)c1)c1ccccc1` (stereo partly drawn) [Cpd 45, 1-cyclohexyl-8-(3-fluoro-benzyl)-1,4,5,6,7,8-hexahydro-cycloheptapyrazole-3-carboxylic acid [(1S)-1-phenyl-ethyl]-amide], in assay [1] (setting [7]), the IC50 was 700 nM. Besides, the inhibition at 1 µM in assay [1] (setting [8]) is 54%. Also, the EC50 in assay [2] (setting [9]) was found to be 1100 nM. Besides, in assay [3], the “CB2 receptor binding percent inhibition” value amounted to 42%.
Regarding `C[C@H](NC(=O)c1nn(-c2ccc(Cl)cc2Cl)c2c1CCCC/C2=C\c1ccc(F)cc1)C1CCCCC1` [Cpd 148, (8E)-1-(2,4-dichloro-phenyl)-8-(4-fluoro-benzylidene)-1,4,5,6,7,8-hexahydro-cycloheptapyrazole-3-carboxylic acid [(1S)-1-cyclohexyl-ethyl]-amide], the IC50 in assay [1] (setting [6]) is 80 nM. The inhibition at 0.2 µM worked out at 69% in assay [1] and 39% in assay [3]. In addition, the EC50 in assay [2] (setting [5]) was 200 nM.

Source of the values: patent US8378117B2 (priority 2005, dated 2013).
